Test results taken from ChEMBL document CHEMBL5321279 (J Med Chem, 2023).
Calls of active or inactive are those of the source. The calls are words filed in the database; no cut-off is given here.

Assays:
[1] = (§1) Cytotoxicity against human primary hepatocytes assessed as reduction in cell growth measured after 5 days by CellTiter-Glo assay; assay type: toxicity, cell-based, Hepatocyte; details: primary hepatocytes, time 5 day
[2] = Cytotoxicity against stimulated human PBMC cells assessed as reduction in cell growth measured after 5 days by CellTiter-Glo assay; assay type: toxicity, cell-based; details: stimulated PBMC, time 5 day
[3] = AUC(0 to 24 hrs) in African green monkey infected with SARS-CoV-2 assessed as prodrug conversion by measuring (2R,3R,4S,5R)-2-(4-aminopyrrolo[2,1-f][1,2,4]triazin-7-yl)-3,4-dihydroxy-5-(hydroxymethyl)tetrahydrofuran-2-carbonitrile at 10 mg/kg, iv qd administered for day 1 followed by 5 mg/kg administration measured after 6 days by LC-MS/MS analysis; assay type: ADME, organism-based, Severe acute respiratory syndrome coronavirus 2; set-up: dose 10 mg/kg, time 6 day, route iv; details: in vivo
[4] = AUC(0 to 24 hrs) in African green monkey at 5 mg/kg, po measured upto 24 hrs by LC-MS/MS analysis; assay type: ADME, organism-based; set-up: time < 24 hrs, dose 5 mg/kg, route po; details: chlorocebus sabaeus, in vivo
[5] = AUC(0 to 24 hrs) in rat at 5 mg/kg, po measured upto 24 hrs by LC-MS/MS analysis; assay type: ADME, organism-based; set-up: dose 5 mg/kg, time < 24 hrs, route po; details: in vivo
[6] = in vivo; details: dog, po, 5 mg/kg
[7] = AUC(0 to 24 hrs) in cynomolgus monkey at 11.7 mg/kg, po measured upto 24 hrs by LC-MS/MS analysis; assay type: ADME, organism-based, Macaca fascicularis; set-up: dose 11.7 mg/kg, time < 24 hrs, route po; details: in vivo
[8] = Stability of compound in cynomolgus monkey liver S9 fraction assessed as half life at pH 7.4 measured upto 90 mins by LC-MS/MS analysis; assay type: ADME, subcellular, Macaca fascicularis
[9] = Stability of compound in dog gastrointestinal S9 fraction assessed as half life at pH 7.4 measured upto 120 mins by LC-MS/MS analysis; assay type: ADME, subcellular, Canis lupus familiaris, Gastrointestinal tract
[10] = tested on: CES1b; experiment: Stability of compound assessed as human recombinant CES1b-mediated compound hydrolysis by measuring half life at pH 7.4 using oseltamivir as substrate measured upto 120 mins by LC-MS/MS analysis; assay type: ADME; details: pH 7.4, probe oseltamivir
[11] = Stability of compound in cynomolgus monkey plasma assessed as half life measured upto 4 hrs by LC-MS/MS analysis; assay type: ADME, cell-free, Macaca fascicularis
[12] = Cmax in African green monkey infected with SARS-CoV-2 assessed as prodrug conversion by measuring (2R,3R,4S,5R)-2-(4-aminopyrrolo[2,1-f][1,2,4]triazin-7-yl)-3,4-dihydroxy-5-(hydroxymethyl)tetrahydrofuran-2-carbonitrile at 60 mg/kg, po qd measured after 6 days by LC-MS/MS analysis; assay type: ADME, organism-based, Severe acute respiratory syndrome coronavirus 2; set-up: dose 60 mg/kg, time 6 day, route po; details: in vivo
[13] = Half life in rat assessed as prodrug conversion by measuring (2R,3R,4S,5R)-2-(4-aminopyrrolo[2,1-f][1,2,4]triazin-7-yl)-3,4-dihydroxy-5-(hydroxymethyl)tetrahydrofuran-2-carbonitrile at 6 mg/kg, po measured upto 24 hrs by LC-MS/MS analysis; assay type: ADME, organism-based; details: in vivo
[14] = AUC(0 to 24 hrs) in dog at […], po measured upto 24 hrs by LC-MS/MS analysis; assay type: ADME, organism-based, Canis lupus familiaris; details: in vivo
[15] = tested on: Hepatocyte; experiment: as §1; assay type: toxicity, cell-based; details: hepatocytes, 120 h, time 5 day
[16] = Oral bioavailability in African green monkey assessed as prodrug conversion by measuring (2R,3R,4S,5R)-2-(4-aminopyrrolo[2,1-f][1,2,4]triazin-7-yl)-3,4-dihydroxy-5-(hydroxymethyl)tetrahydrofuran-2-carbonitrile at 60 mg/kg measured upto 24 hrs by LC-MS/MS analysis; assay type: ADME, organism-based; details: chlorocebus sabaeus, in vivo
[17] = AUC(0 to 24 hrs) in African green monkey assessed as prodrug conversion by measuring (2R,3R,4S,5R)-2-(4-aminopyrrolo[2,1-f][1,2,4]triazin-7-yl)-3,4-dihydroxy-5-(hydroxymethyl)tetrahydrofuran-2-carbonitrile at 86.5 mg/kg, po measured upto 24 hrs by LC-MS/MS analysis; assay type: ADME, organism-based; set-up: dose 86.5 mg/kg, time < 24 hrs, route po; details: chlorocebus sabaeus, in vivo
[18] = AUC(0 to 24 hrs) in African green monkey assessed as prodrug conversion by measuring (2R,3R,4S,5R)-2-(4-aminopyrrolo[2,1-f][1,2,4]triazin-7-yl)-3,4-dihydroxy-5-(hydroxymethyl)tetrahydrofuran-2-carbonitrile at […], po measured upto 24 hrs by LC-MS/MS analysis; assay type: ADME, organism-based; details: chlorocebus sabaeus, in vivo
[19] = Cmax in African green monkey assessed as prodrug conversion by measuring (2R,3R,4S,5R)-2-(4-aminopyrrolo[2,1-f][1,2,4]triazin-7-yl)-3,4-dihydroxy-5-(hydroxymethyl)tetrahydrofuran-2-carbonitrile at […], po measured upto 24 hrs by LC-MS/MS analysis; assay type: ADME, organism-based; details: chlorocebus sabaeus, in vivo
[20] = tested on: SARS-CoV-2; experiment: Antiviral activity against SARS-CoV-2 infected in African green monkey assessed as reduction in viral genomic RNA load in throat swabs at 60 to 120 mg/kg, po qd administered for 1 day starting from 8 hrs post infection by RT-qPCR analysis; assay type: functional, organism-based; details: Severe acute respiratory syndrome coronavirus 2, dose lower 60.0 mg/kg, dose upper […]
[21] = Stability of compound in cynomolgus monkey gastrointestinal S9 fraction assessed as half life at pH 7.4 measured upto 120 mins by LC-MS/MS analysis; assay type: ADME, subcellular, Macaca fascicularis, Gastrointestinal tract
[22] = Half life in African green monkey assessed as prodrug conversion by measuring (2R,3R,4S,5R)-2-(4-aminopyrrolo[2,1-f][1,2,4]triazin-7-yl)-3,4-dihydroxy-5-(hydroxymethyl)tetrahydrofuran-2-carbonitrile at 86.5 mg/kg, po measured upto 24 hrs by LC-MS/MS analysis; assay type: ADME, organism-based; details: chlorocebus sabaeus, in vivo
[23] = tested on: SARS-CoV-2; experiment: Antiviral activity against SARS-CoV-2 infected in African green monkey assessed as reduction in genomic RNA load in BALF at 60 mg/kg, po qd administered for 1 day starting from 8 hrs post infection by RT-qPCR analysis; assay type: functional, organism-based; details: Severe acute respiratory syndrome coronavirus 2
[24] = Oral bioavailability in cynomolgus monkey assessed as prodrug conversion by measuring (2R,3R,4S,5R)-2-(4-aminopyrrolo[2,1-f][1,2,4]triazin-7-yl)-3,4-dihydroxy-5-(hydroxymethyl)tetrahydrofuran-2-carbonitrile at 11.7 mg/kg measured upto 24 hrs by LC-MS/MS analysis; assay type: ADME, organism-based, Macaca fascicularis; details: in vivo
[25] = tested on: SARS-CoV-2; experiment: Antiviral activity against SARS-CoV-2 infected in African green monkey assessed as reduction in viral titer in throat swabs at 60 to 120 mg/kg, po qd administered for 6 days starting from 8 hrs post infection by PFA assay; assay type: functional, organism-based; details: Severe acute respiratory syndrome coronavirus 2, dose lower 60.0 mg/kg, dose upper […], time 6.0 day
[26] = Oral bioavailability in rat assessed as prodrug conversion by measuring (2R,3R,4S,5R)-2-(4-aminopyrrolo[2,1-f][1,2,4]triazin-7-yl)-3,4-dihydroxy-5-(hydroxymethyl)tetrahydrofuran-2-carbonitrile at 6 mg/kg measured upto 24 hrs by LC-MS/MS analysis; assay type: ADME, organism-based; details: in vivo
[27] = Stability of compound in human plasma assessed as half life measured upto 4 hrs by LC-MS/MS analysis; assay type: ADME, cell-free
[28] = Cmax in rat assessed as prodrug conversion by measuring (2R,3R,4S,5R)-2-(4-aminopyrrolo[2,1-f][1,2,4]triazin-7-yl)-3,4-dihydroxy-5-(hydroxymethyl)tetrahydrofuran-2-carbonitrile at 6 mg/kg, po measured upto 24 hrs by LC-MS/MS analysis; assay type: ADME, organism-based; set-up: dose 6 mg/kg, time < 24 hrs, route po; details: in vivo
[29] = Stability of compound in dog plasma assessed as half life measured upto 4 hrs by LC-MS/MS analysis; assay type: ADME, cell-free, Canis lupus familiaris

## CCC(CC)COC(=O)[C@H](C)N[P@](=O)(OC[C@H]1O[C@@](C#N)(c2ccc3c(N)ncnn23)[C@H](O)[C@@H]1O)Oc1ccccc1
[1]
  CC50 at 120 h: 2.5 µM
[2]
  CC50 at 120 h: 14.8 µM
[3]
  AUC: 7.9 µM·h

## N#C[C@@]1(c2ccc3c(N)ncnn23)O[C@H](CO)[C@@H](O)[C@H]1O [GS-441524]
[4]
  AUC: 3.15 µM·h
[5]
  AUC: 3.97 µM·h
[6]
  bioavailability at 24 h: 89%

## CC(C)C(=O)OC[C@H]1O[C@@](C#N)(c2ccc3c(N)ncnn23)[C@H](O)[C@@H]1O [OBELDESIVIR]
[7]
  AUC: 0.01 µM·h
[8]
  half-life at […]: < 2 min
[9]
  half-life: < 2 min
[10]
  half-life: 4 min
[11]
  half-life: 9.7 min
[12]
  Cmax: 21 µM
[13]
  t1/2: 121 min
[14]
  AUC: 0.4 µM·h
[15]
  CC50: > 100 µM
[16]
  F: 36%
[17]
  AUC: 136 µM·h
[18]
  AUC: 26.6 µM·h
[19]
  Cmax: 6.81 µM
[20]
  Activity: Active
[21]
  half-life: < 2 min
[22]
  t1/2: 179 min
[23]
  Activity: inactive
[24]
  F: 37%
[25]
  Activity: Active
[26]
  F: 63%
[27]
  half-life: 29 min
[28]
  Cmax: 2.1 µM
[29]
  half-life: 412 min
